Data set [1] can be described thus: Pharmacokinetic analysis in mouse plasma and brain after i.p. injection. Conditions: for Kp: brain/plasma; for Kp / Cmax / AUC / Tmax / half-life: 10 mg/kg, mouse; for Kp / Cmax: i.p. The data set is classed as in vivo. The procedure: Wildtype mice (postnatal day 21-28, P21-28) received an i.p. injection of 10 mg/kg CBGA methyl ester or olivetolic acid. At selected time points (15–120 min) mice were anesthetized with isoflurane, whole blood was collected by cardiac puncture and brains were harvested. The plasma was isolated by centrifugation and samples were stored at −80°C until assayed. Concentrations in the plasma and brain samples at each time point were averaged, and pharmacokinetic parameters were calculated by noncompartmental analysis as previously described (Hawkins et al. [2017]).
The plasma and brain samples were prepared for LC-MS/MS analysis as previously described (Anderson et al. [2019b], [2020]). Briefly, acetonitrile was used to precipitate proteins and extract CBGA methyl ester and olivetolic acid from the biological matrices. The brain samples were additionally filtered through Amicon Ultracel 3K (Merck-Millipore; Burlington, USA) filtration devices. The plasma and brain samples underwent supported-liquid extraction with methyl tert-butyl ether using Biotage Isolute SLE+ columns (Uppsala, SWE) and were then evaporated to dryness with N2. Residues were reconstituted in actetonitrile and 0.1% formic acid in water (1:1, v/v) for analysis using a Shimadzu Nexera ultra-HPLC coupled to a Shimadzu 8030 triple quadrupole mass spectrometer (Shimadzu Corp.; Kyoto, JPN). The mass spectrometer was operated in positive electrospray ionization mode for CBGA methyl ester and negative electrospray ionization mode for olivetolic acid with multiple reaction monitoring and the following mass transition pairs (m/z): 375.20 > 343.25, 375.20 > 219.10 and 375.20 > 251.15 (CBGA-methylester) and 223.25 > 179.25 (olivetolic acid). Quantification of analytes in the plasma and brain samples was achieved by comparing samples to standards prepared with known amounts of compound.

The target in another data set is T1, CaV3.1 (Homo sapiens, UniProt O43497).
T1 construct: expressed in transfected cells; host or cells: Flp-In T-REx HEK (tetracycline-induced)
Briefly: Measurement of intracellular calcium, CaV3.1. The data set is classed as cell-based. Conditions: 10 μM; HEK293 cells expressing human CaV3.1. As for the experimental part:
(§1) Changes in intracellular calcium concentrations were measured in Flp-In™ T-REx™ HEK stably expressing either CaV3.1, CaV3.2, or CaV3.3 using Calcium 5 dye (Molecular Devices; Sunnyvale, USA) as previously described (Bladen et al. [2021]). Briefly, cells (120,000/well) were plated into a black, clear-bottomed poly-D-lysine coated, 96-well plate in the presence of 2 μg/mL tetracycline to induce channel expression and incubated overnight at 37°C in ambient CO2. Calcium 5 dye was diluted in HEPES-buffered low potassium Hanks Balanced Salt Solution (HBSS) at 50% of manufacturer’s recommendation. Dye solution containing probenecid (2.5 mM) was added and incubated for 60 min at 37°C in ambient CO2. Compounds were prepared as stock solutions in DMSO and diluted in HBSS with 0.01% bovine serum albumin. Compounds were applied for 5 min, then 10 mM CaCl2 was added. A FlexStation 3 Microplate reader (Molecular Devices; San Jose, USA) was used to take fluorescence readings every 2 s (excitation 485 nm, emission 525 nm). Baseline recordings were taken as the average fluorescence over 20 s preceding CaCl2 addition. Changes in fluorescence were measured as the maximal increase in fluorescence from baseline following CaCl2 addition and normalized to the response of vehicle. CaCl2 addition produced no effect in non-induced cells (Supplemental Fig. 2). Final drug concentrations had ≤ 0.1% DMSO. […]

Another data set concerns the target T2, CaV3.2 (Homo sapiens, UniProt O95180).
T2 construct: expressed in transfected cells; host or cells: Flp-In T-REx HEK (tetracycline-induced)
Briefly: Measurement of intracellular calcium, CaV3.2. The data set is classed as cell-based. The settings on record: 10 μM; HEK293 cells expressing human CaV3.2. As for the experimental part: as §1, with “vehicle.” for “vehicle. CaCl2 addition produced no effect in non-induced cells (Supplemental Fig. 2). Final drug concentrations had ≤ 0.1% DMSO.”

A further data set deals with T3, CaV3.3 (Homo sapiens, UniProt Q9P0X4).
T3 construct: expressed in transfected cells; host or cells: Flp-In T-REx HEK (tetracycline-induced)
T3 sequence (Q9P0X4 whole entry): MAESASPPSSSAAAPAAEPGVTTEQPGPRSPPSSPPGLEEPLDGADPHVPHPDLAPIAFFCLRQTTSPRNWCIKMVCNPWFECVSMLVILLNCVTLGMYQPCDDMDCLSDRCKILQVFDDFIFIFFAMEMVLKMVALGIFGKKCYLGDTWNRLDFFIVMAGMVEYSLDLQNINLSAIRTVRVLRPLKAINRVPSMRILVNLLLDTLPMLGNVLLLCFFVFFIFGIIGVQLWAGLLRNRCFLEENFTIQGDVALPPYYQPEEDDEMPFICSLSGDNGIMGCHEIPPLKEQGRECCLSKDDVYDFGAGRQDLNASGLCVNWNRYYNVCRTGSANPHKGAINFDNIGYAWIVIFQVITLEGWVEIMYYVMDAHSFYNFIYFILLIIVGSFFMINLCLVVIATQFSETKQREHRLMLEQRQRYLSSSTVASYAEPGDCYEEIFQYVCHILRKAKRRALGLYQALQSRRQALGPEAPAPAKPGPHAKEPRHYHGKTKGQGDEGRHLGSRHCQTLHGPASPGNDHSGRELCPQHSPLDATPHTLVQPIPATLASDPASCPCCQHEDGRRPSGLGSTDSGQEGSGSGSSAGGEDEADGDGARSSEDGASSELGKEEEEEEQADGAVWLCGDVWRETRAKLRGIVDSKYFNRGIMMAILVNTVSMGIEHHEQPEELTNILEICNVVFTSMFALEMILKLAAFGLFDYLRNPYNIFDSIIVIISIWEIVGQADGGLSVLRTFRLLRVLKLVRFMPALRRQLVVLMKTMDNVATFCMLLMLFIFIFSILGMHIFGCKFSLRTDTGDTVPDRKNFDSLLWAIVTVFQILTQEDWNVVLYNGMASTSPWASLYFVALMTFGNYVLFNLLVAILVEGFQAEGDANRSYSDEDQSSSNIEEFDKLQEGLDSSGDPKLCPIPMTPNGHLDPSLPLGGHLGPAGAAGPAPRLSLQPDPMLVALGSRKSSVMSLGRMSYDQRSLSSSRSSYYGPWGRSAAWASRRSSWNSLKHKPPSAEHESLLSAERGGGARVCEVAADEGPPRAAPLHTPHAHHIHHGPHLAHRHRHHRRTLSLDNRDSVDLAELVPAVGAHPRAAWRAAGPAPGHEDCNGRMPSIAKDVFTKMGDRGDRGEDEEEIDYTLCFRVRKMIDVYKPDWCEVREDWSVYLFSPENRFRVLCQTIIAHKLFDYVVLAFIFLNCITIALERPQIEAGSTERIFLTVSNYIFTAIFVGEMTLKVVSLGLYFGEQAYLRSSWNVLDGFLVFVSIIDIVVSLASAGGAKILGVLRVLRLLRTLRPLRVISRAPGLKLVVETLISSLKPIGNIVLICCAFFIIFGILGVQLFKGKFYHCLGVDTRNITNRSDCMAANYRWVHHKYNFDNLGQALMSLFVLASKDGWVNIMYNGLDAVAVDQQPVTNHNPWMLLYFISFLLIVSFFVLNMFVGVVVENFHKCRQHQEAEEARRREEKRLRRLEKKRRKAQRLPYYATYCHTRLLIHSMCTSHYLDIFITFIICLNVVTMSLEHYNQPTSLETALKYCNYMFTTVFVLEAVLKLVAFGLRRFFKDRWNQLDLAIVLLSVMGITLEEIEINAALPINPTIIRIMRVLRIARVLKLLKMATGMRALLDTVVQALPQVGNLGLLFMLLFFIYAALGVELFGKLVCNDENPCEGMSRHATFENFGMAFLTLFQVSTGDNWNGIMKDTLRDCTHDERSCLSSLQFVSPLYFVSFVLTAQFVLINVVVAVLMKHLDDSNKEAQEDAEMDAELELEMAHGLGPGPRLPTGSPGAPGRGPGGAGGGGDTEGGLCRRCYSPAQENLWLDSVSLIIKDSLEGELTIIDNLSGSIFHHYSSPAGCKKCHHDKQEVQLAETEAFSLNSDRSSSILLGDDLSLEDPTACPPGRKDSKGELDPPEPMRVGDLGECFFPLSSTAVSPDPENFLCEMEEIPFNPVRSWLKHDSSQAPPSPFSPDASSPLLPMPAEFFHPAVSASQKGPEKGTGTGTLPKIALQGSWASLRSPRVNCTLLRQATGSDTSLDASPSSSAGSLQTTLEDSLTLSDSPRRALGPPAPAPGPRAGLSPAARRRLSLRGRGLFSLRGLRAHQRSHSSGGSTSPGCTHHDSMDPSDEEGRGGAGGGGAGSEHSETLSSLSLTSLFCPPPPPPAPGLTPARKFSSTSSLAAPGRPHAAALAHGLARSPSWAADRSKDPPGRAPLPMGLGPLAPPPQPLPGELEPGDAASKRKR
Nature of the data set: Measurement of intracellular calcium, CaV3.3. It is filed as cell-based. The settings on record: 10 μM; HEK293 cells expressing human CaV3.3. As for the experimental part:
as §1

Setting [2] is: intraperitoneal, read-out: brain penetration.
Setting [3] is: ip, from AUC values, read-out: Brain-plasma ratio.
[4] abbreviates: ip, brain, converted from ng/mg brain assuming density of 1 g/mL, read-out: Cmax.

SMILES strings stand for the structures. Entries after “also recorded” stand apart in the source; their conditions may differ. Like-named read-outs stand apart in the source and are kept apart here. A value given as a limit tells only on which side of the number the result lay.

T2 sequence (O95180 whole entry): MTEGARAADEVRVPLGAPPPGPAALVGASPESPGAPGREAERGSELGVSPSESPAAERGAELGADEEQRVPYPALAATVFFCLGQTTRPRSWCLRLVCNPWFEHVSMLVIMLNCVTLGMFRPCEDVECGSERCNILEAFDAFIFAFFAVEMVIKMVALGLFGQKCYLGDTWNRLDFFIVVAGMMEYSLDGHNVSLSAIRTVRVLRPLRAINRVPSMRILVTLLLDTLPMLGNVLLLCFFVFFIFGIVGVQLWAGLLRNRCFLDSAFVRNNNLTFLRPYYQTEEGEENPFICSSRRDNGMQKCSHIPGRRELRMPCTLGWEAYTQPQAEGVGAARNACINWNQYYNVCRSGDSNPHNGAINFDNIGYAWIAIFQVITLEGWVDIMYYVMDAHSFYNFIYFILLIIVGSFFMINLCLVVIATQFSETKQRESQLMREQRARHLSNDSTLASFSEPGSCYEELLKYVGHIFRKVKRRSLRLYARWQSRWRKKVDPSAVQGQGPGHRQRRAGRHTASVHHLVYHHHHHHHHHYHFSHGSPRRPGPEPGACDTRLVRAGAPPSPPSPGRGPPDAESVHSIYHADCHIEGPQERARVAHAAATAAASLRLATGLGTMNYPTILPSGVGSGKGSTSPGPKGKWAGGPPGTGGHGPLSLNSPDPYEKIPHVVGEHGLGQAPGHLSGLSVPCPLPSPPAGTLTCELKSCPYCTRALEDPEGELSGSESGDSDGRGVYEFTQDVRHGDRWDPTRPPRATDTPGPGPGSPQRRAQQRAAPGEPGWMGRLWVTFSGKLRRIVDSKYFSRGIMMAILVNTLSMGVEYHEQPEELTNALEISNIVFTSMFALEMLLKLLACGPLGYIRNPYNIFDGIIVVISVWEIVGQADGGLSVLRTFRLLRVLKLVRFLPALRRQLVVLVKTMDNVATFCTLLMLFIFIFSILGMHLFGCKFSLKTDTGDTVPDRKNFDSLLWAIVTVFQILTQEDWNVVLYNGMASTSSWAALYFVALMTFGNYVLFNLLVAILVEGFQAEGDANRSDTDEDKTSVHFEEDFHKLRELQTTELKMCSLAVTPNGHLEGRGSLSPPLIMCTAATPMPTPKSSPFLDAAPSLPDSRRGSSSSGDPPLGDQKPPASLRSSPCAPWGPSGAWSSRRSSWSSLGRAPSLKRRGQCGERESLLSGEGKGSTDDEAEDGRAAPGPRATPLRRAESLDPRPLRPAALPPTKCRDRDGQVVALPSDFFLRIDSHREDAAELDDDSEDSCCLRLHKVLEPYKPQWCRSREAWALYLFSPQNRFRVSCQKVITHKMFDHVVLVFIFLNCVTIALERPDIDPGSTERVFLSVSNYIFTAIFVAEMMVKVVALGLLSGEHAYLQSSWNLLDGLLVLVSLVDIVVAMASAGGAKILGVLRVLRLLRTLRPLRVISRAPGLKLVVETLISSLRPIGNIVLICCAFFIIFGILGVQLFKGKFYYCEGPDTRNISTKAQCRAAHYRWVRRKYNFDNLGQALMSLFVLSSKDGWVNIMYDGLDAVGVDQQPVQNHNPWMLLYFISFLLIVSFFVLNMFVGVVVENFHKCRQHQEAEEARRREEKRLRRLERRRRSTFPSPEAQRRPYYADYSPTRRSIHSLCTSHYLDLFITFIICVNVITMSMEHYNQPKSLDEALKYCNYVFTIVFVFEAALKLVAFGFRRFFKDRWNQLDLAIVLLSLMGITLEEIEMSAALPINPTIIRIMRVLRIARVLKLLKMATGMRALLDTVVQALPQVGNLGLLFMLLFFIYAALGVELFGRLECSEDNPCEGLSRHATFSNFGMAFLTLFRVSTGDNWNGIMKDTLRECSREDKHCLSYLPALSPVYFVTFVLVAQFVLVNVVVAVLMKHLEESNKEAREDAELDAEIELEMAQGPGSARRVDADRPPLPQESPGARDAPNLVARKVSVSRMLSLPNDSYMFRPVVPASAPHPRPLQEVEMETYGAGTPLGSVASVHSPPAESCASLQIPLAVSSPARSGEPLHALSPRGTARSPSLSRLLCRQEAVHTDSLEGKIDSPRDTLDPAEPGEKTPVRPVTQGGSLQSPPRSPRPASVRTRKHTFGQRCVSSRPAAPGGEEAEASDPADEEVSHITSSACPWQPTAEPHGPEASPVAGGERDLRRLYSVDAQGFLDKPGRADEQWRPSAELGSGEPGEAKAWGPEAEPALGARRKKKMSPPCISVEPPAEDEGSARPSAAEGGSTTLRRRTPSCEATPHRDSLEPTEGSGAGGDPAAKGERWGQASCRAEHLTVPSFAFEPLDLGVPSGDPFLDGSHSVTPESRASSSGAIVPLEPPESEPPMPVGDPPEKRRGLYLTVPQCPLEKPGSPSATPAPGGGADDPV

With `CCCCCc1cc(O)c(C/C=C(\C)CCC=C(C)C)c(O)c1C(=O)OC` [CBGA methyl ester], the Kp in data set [1] (setting [2]) and in data set [1] (setting [3]) was 0.13 each time. Besides, in data set [1] (compared with CBGA of Anderson et al. 2019b), the “improvement of brain-plasma ratio over CBGA” value is “nearly a seven fold improvement”. Further, the Cmax in data set [1] (setting [4]) was 210 ± 30 ng/mL; in data set [1] (ip, plasma, read-out: Cmax), 1300 ± 300 ng/mL. Further, the AUC in data set [1] (ip, brain) is 367 ng·h/mL; in data set [1] (ip, plasma) it was 2850 ng·h/mL. In addition, the Tmax in data set [1] (ip, brain) was 30 min; in data set [1] (ip, plasma), 45 min. The half-life in data set [1] (brain, ip) is 62 min; in data set [1] (plasma, ip), 81 min. Moreover, at CaV3.1, the “inhibition of CaV3.1 (change in intracellular calcium relative to vehicle)” value is “Neither CBGA methyl ester nor olivetolic acid had any effect; also recorded: no effect”. On CaV3.2, the “inhibition of CaV3.2 (change in intracellular calcium relative to vehicle)” value was “Neither CBGA methyl ester nor olivetolic acid had any effect; also recorded: no effect”. Also, the “inhibition of CaV3.3 (change in intracellular calcium relative to vehicle)” value on CaV3.3 is reported as “Neither CBGA methyl ester nor olivetolic acid had any effect; also recorded: no effect”.

Consider `CCCCCc1cc(O)cc(O)c1C(=O)O` [Olivetolic acid], for which the Kp in data set [1] (setting [2]) and in data set [1] (setting [3]) was 0.01 in each case. The Cmax in data set [1] (brain) came out at 0.45 ± 0.06 ng/mg brain; in data set [1] (setting [4]) it was 450 ± 60 ng/mL; in data set [1] (ip, plasma, read-out: Cmax) it was 65000 ± 4000 ng/mL. Besides, the AUC in data set [1] (ip, brain) is 217 ng·h/mL; in data set [1] (ip, plasma), 18400 ng·h/mL. The Tmax in data set [1] (ip, brain) is 15 min; in data set [1] (ip, plasma), 15 min. Also, the half-life in data set [1] (brain, ip) is under 15 min; in data set [1] (plasma, ip) it was under 15 min. Besides, the “inhibition of CaV3.1 (change in intracellular calcium relative to vehicle)” value on CaV3.1 is reported as “Neither CBGA methyl ester nor olivetolic acid had any effect; also recorded: ineffective”. For the same molecule, the “inhibition of CaV3.2 (change in intracellular calcium relative to vehicle)” value on CaV3.2 is reported as “Neither CBGA methyl ester nor olivetolic acid had any effect; also recorded: ineffective”. Moreover, the “inhibition of CaV3.3 (change in intracellular calcium relative to vehicle)” value on CaV3.3 is listed as “Neither CBGA methyl ester nor olivetolic acid had any effect; also recorded: ineffective”.

These data come from PMC8725448 (Journal of Cannabis Research, 2022).
